# Measurements reported in patent publication US20240150377A1, “MODULATORS OF CYSTIC FIBROSIS TRANSMEMBRANE CONDUCTANCE REGULATOR” (VERTEX PHARMACEUTICALS INCORPORATED, priority 2020, published 2024).
# Target: T1, CFTR (Homo sapiens, UniProt P13569, DEL508-508)
# T1 construct: endogenous in cells; host or cells: primary human bronchial epithelial cells from CF subjects (F508del/MF-HBE), differentiated at air-liquid interface
# Assay: HBE2 assay: Ussing chamber assay of CFTR-mediated short-circuit currents
# Format: cell-based
# Details: 3 μM corrector; F508del/MF-HBE cells; with 44 nM potentiator, 18-24 hours, 20% human serum
# Procedure, shortened: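 F508del/MF-HBE cultured >14 days at air-liquid interface, mounted in Ussing chambers; transepithelial short-circuit current recorded under voltage clamp (Vhold=0 mV) at 37 °C. CFTR-mediated ISC (μA/cm^2) taken as peak forskolin response relative to steady-state current after inhibition; corrector activity assessed this way.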
# T1 sequence (P13569 with tags, fused parts or gaps DEL508-508): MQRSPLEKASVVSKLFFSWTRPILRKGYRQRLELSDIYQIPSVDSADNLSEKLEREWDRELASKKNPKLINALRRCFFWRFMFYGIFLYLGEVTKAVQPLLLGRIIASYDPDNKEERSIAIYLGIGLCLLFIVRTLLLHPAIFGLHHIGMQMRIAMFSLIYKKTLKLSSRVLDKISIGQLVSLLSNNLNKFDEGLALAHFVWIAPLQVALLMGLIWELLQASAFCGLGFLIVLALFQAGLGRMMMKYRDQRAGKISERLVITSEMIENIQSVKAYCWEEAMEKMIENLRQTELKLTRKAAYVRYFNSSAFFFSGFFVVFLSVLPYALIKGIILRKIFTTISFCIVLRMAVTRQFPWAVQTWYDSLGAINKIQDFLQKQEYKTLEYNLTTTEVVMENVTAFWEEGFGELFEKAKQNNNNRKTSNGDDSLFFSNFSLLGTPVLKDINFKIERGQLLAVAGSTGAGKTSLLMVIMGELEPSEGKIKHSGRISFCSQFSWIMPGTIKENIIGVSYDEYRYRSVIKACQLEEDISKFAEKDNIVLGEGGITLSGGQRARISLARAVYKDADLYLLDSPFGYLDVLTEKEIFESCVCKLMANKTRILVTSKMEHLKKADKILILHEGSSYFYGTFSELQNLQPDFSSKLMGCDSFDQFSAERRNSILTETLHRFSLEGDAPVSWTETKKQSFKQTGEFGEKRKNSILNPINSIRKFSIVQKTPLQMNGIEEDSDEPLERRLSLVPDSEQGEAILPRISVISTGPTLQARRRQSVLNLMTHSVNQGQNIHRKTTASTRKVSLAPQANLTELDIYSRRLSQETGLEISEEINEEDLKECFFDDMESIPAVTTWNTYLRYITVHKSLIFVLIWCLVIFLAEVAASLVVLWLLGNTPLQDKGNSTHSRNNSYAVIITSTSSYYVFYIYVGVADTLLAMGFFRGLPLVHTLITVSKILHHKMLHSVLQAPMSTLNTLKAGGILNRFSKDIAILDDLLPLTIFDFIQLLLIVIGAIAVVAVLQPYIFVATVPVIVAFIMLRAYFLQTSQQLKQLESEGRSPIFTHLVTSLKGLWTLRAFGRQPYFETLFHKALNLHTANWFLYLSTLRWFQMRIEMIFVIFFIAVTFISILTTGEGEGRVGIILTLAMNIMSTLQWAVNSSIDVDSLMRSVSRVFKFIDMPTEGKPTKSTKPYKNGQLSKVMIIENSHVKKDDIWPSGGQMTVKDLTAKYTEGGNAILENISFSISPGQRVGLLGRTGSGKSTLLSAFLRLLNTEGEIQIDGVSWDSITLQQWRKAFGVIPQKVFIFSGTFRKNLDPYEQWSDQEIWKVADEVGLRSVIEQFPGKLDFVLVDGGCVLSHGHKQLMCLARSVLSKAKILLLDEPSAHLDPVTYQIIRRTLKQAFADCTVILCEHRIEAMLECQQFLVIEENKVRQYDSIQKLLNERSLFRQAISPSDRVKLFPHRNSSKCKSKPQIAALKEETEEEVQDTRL
row,HBE2 Activity at 3 μM (%),SMILES
1,+++ (+++ is >60+),Cc1cccc(C)c1-c1cc2nc(n1)NS(=O)(=O)c1cccc(c1)C(=O)N(Cc1cncc(N3CCC[C@H]3C(C)C)n1)[C@H](CC1CCCC1)CO2 [Compound 1846]
2,+++ (+++ is >60+),Cc1cccc(C)c1-c1cc2nc(n1)NS(=O)(=O)c1cccc(c1)C(=O)N(Cc1ncc(OC3CCC3)cn1)[C@H](COC(C)C)CO2 [Compound 1956]
3,+++ (+++ is >60+),Cc1cccc(C)c1-c1cc2nc(n1)NS(=O)(=O)c1cccc(c1)C(=O)N(Cc1cncc(N3CCCC[C@H]3C)n1)[C@H](C[C@H]1CCCOC1)CO2 (stereo in doubt) [Compound 1942]
4,+++ (+++ is >60+),Cc1cccc(C)c1-c1cc2nc(n1)NS(=O)(=O)c1cccc(c1)C(=O)N(Cc1cncc(N(C)[C@H]3C[C@H](C)C3)n1)[C@H](CCC(C)(C)C)CO2 [Compound 1885]
5,+++ (+++ is >60+),Cc1cccc(C)c1-c1cc2nc(n1)NS(=O)(=O)c1cccc(c1)C(=O)N(Cc1cnc3cc(C(C)C)n(C)c3n1)[C@H](CC(C)(C)F)CO2 [Compound 1819]
6,+++ (+++ is >60+),Cc1cccc(C)c1-c1cc2nc(n1)NS(=O)(=O)c1cccc(c1)C(=O)N(Cc1cnc3cc(C(C)C)n(C)c3n1)[C@H](CC1(C)CCC1)CO2 [Compound 1829]
7,+++ (+++ is >60+),Cc1cccc(C)c1-c1cc2nc(n1)NS(=O)(=O)c1cccc(c1)C(=O)N(Cc1cc(N)cc(N(C)C3CCC3)n1)[C@H](CC(C)(C)C)CO2 [Compound 1928]
8,+++ (+++ is >60+),Cc1cccc(C)c1-c1cc2nc(n1)NS(=O)(=O)c1cccc(c1)C(=O)N(Cc1cncc(N3CCC[C@H]3C(C)C)n1)[C@H](CC1(C)CCC1)CO2 [Compound 1775]
9,+++ (+++ is >60+),CCN(CC1CC1)c1cncc(CN2C(=O)c3cccc(c3)S(=O)(=O)Nc3nc(cc(-c4c(C)cccc4C)n3)OC[C@H]2CC(C)(C)C)n1 [Compound 1780]
10,+++ (+++ is >60+),Cc1cccc(C)c1-c1cc2nc(n1)NS(=O)(=O)c1cccc(c1)C(=O)N(Cc1cncc(N(C)C3CC(F)(F)C3)n1)[C@H](COC(C)C)CO2 [Compound 1946]
11,+++ (+++ is >60+),Cc1cccc(C)c1-c1cc2nc(n1)NS(=O)(=O)c1cccc(c1)C(=O)N(Cc1cncc(N3CC[C@H]3C)n1)[C@H](COC(C)C)CO2 [Compound 1926]
12,+++ (+++ is >60+),Cc1cccc(C)c1-c1cc2nc(n1)NS(=O)(=O)c1cccc(c1)C(=O)N(Cc1cnc3cc(C(C)C)n(C)c3n1)[C@H](CCC(C)(C)C)CO2 [Compound 1826]
13,+++ (+++ is >60+),Cc1cccc(C)c1-c1cc2nc(n1)NS(=O)(=O)c1cccc(c1)C(=O)N(Cc1cncc(N(C)CC3CC3)n1)[C@H](CCC(C)(C)C)CO2 [Compound 1810]
14,+ (+ is <300)),Cc1cccc(C)c1-c1cc2nc(n1)NS(=O)(=O)c1cccc(c1)C(=O)N(Cc1cncc(N3CCC[C@H]3C)n1)[C@H](CC1CC(C)(C)C1)CO2 [Compound 1900]
15,+++ (+++ is >60+),Cc1cccc(C)c1-c1cc2nc(n1)NS(=O)(=O)c1cccc(c1)C(=O)N(Cc1cncc(N(C)C3CCC3)n1)[C@H](COC1CC1)CO2 [Compound 1893]
16,+++ (+++ is >60+),Cc1cccc(C)c1-c1cc2nc(n1)NS(=O)(=O)c1cccc(c1)C(=O)N(Cc1cncc(N3CC(F)(F)[C@H]3C)n1)[C@H](CC(C)(C)C)CO2 [Compound 1769]

# The next lines start with the molecule.
row,SMILES,HBE2 Activity at 3 μM (%)
1,Cc1cccc(C)c1-c1cc2nc(n1)NS(=O)(=O)c1cccc(c1)C(=O)N(Cc1cnc(C)c(N(C)C3CCC3)n1)[C@H](CC(C)(C)C)CO2 [Compound 1714],+++ (+++ is >60+)
2,"Cc1cccc(C)c1-c1cc2nc(n1)NS(=O)(=O)c1cccc(c1)C(=O)N(Cc1cncc(N(C)C3CCC3)n1)[C@H](CC1CC(C)(C)C1)CO2 (stereo in doubt) [Compound 1340, 12-[[6-[cyclobutyl(methyl)amino]pyrazin-2-yl]methyl]-11-[(3,3-dimethylcyclobutyl)methyl]-6-(2,6-dimethylphenyl)-2,2-dioxo-9-oxa-2λ^6-thia-3,5,12,19-tetrazatricyclo[12.3.1.14,8]nonadeca-1(18),4(19),5,7,14,16-hexaen-13-one]",++ (++ is 30-60%)
3,Cc1cccc(C)c1-c1cc2nc(n1)NS(=O)(=O)c1cccc(c1)C(=O)N(Cc1cncc(N(C)C3CCC3)n1)[C@@H]1CCN(C3CC4(CCCC4)C3)C[C@H]1O2 [Compound 1768],+++ (+++ is >60+)
4,Cc1cccc(C)c1-c1cc2nc(n1)NS(=O)(=O)c1cccc(c1)C(=O)N(Cc1cncc(N(C)C3CCC3)n1)[C@H](C(C)(C)C)CO2 [Compound 1732],+++ (+++ is >60+)
5,Cc1cccc(C)c1-c1cc2nc(n1)NS(=O)(=O)c1cccc(c1)C(=O)N(Cc1cncc(N3CCO[C@@H](C)[C@H]3C)n1)[C@H](CC(C)(C)C)CO2 (stereo in doubt) [Compound 1760],+++ (+++ is >60+)
6,"Cc1cccc(C)c1-c1cc2nc(n1)NS(=O)(=O)c1cccc(c1)C(=O)N(Cc1cncc(N(C)C3CCC3)n1)[C@H](CC1CC(C)(C)C1)CO2 (single isomer, unassigned) [Compound 1339, 12-[[6-[Cyclobutyl(methyl)amino]pyrazin-2-yl]methyl]-11-[(3,3-dimethylcyclobutyl)methyl]-6-(2,6-dimethylphenyl)-2,2-dioxo-9-oxa-2λ^6-thia-3,5,12,19-tetrazatricyclo[12.3.1.14,8]nonadeca-1(18),4(19),5,7,14,16-hexaen-13-one]",+++ (+++ is >60+)
7,COC[C@@H]1CCN1c1cncc(CN2C(=O)c3cccc(c3)S(=O)(=O)Nc3nc(cc(-c4c(C)cccc4C)n3)OC[C@H]2CCC(C)(C)C)n1 [Compound 1730],+++ (+++ is >60+)

# Same assay, conditions: 3 μM; F508del/MF-HBE cells; with 44 nM potentiator; 18-24 hours; 20% human serum
row,HBE2 Activity at 3 μM (%),SMILES
1,+++ (+++ is >60+),COC[C@H]1C[C@@H](N(C)c2cncc(CN3C(=O)c4cccc(c4)S(=O)(=O)Nc4nc(cc(-c5c(C)cccc5C)n4)OC[C@H]3CC(C)(C)C)n2)C1 [Compound 1619]
2,+++ (+++ is >60+),Cc1cccc(C)c1-c1cc2nc(n1)NS(=O)(=O)c1cccc(c1)C(=O)N(Cc1cncc(N3CCC4C3CC(=O)N4C)n1)[C@H](CC(C)(C)C)CO2 (some centres unmarked) [Compound 1639]
3,+++ (+++ is >60+),CCCOc1cnc(CN2C(=O)c3cccc(c3)S(=O)(=O)Nc3nc(cc(-c4c(C)cccc4C)n3)OC[C@H]2CC2(C)CCC2)nc1 [Compound 1641]
4,+ (+ is <300)),Cc1cccc(C)c1-c1cc2nc(n1)NS(=O)(=O)c1cccc(c1)C(=O)N(Cc1ncc(OC(C)C)cn1)[C@H](CC1CCC1)[C@@H](C)O2 [Compound 1566]
5,+++ (+++ is >60+),CO[C@H](C)CN(C)c1cncc(CN2C(=O)c3cccc(c3)S(=O)(=O)Nc3nc(cc(-c4c(C)cccc4C)n3)OC[C@H]2CC(C)(C)C)n1 [Compound 1633]
6,+++ (+++ is >60+),CCOc1cnc(CN2C(=O)c3cccc(c3)S(=O)(=O)Nc3nc(cc(-c4c(C)cccc4C)n3)OC[C@H]2CCC(C)C)nc1 [Compound 1599]
7,+ (+ is <300)),Cc1cccc(C)c1-c1cc2nc(n1)NS(=O)(=O)c1cccc(c1)C(=O)N(Cc1ncc(OC(C)C)cn1)[C@H]([C@@H](C)C(C)C)CO2 (stereo in doubt) [Compound 1571]
8,+++ (+++ is >60+),Cc1cccc(C)c1-c1cc2nc(n1)NS(=O)(=O)c1cccc(c1)C(=O)N(Cc1cccc([C@@H](C)NC(=O)C(C)C)n1)[C@H](CC(C)(C)C)CO2 [Compound 1590]
9,+++ (+++ is >60+),Cc1cccc(C)c1-c1cc2nc(n1)NS(=O)(=O)c1cccc(c1)C(=O)N(Cc1cncc(N3CCC3CNC(=O)OC(C)(C)C)n1)[C@H](CC(C)(C)C)CO2 (some centres unmarked) [Compound 1699]
10,++ (++ is 30-60%),Cc1cccc(C)c1-c1cc2nc(n1)NS(=O)(=O)c1cccc(c1)CN(Cc1ncc(OC(C)C)cn1)[C@H](CC(C)(C)C)CO2 [Compound 1298]
11,++ (++ is 30-60%),Cc1cccc(C)c1-c1cc2nc(n1)NS(=O)(=O)c1cccc(c1)C(=O)N(Cc1cc(C(C)C)n(C)n1)[C@H](CC(C)(C)C)CO2 [Compound 1413]
12,+++ (+++ is >60+),CC(=O)N[C@H](C)c1cccc(CN2C(=O)c3cccc(c3)S(=O)(=O)Nc3nc(cc(-c4c(C)cccc4C)n3)OC[C@H]2CC(C)(C)C)n1 [Compound 1592]
13,+++ (+++ is >60+),Cc1cccc(C)c1-c1cc2nc(n1)NS(=O)(=O)c1cccc(c1)C(=O)N(Cc1cncc(N(C)C3CCC3)n1)[C@H](CCC(C)C)CO2 [Compound 1685]
14,+++ (+++ is >60+),CC[C@@H](C)Oc1cnc(CN2C(=O)c3cccc(c3)S(=O)(=O)Nc3nc(cc(-c4c(C)cccc4C)n3)OC[C@H]2CC2CCC2)nc1 [Compound 1556]
15,+++ (+++ is >60+),"Cc1cccc(C)c1-c1cc2nc(n1)NS(=O)(=O)c1cccc(c1)C(=O)N(Cc1cncc(N3CCC[C@H]4CC[C@H]43)n1)[C@H](CC(C)(C)C)CO2 (single isomer, unassigned) [Compound 1316]"
16,+++ (+++ is >60+),CC[C@H](C)N(C)c1cncc(CN2C(=O)c3cccc(c3)S(=O)(=O)Nc3nc(cc(-c4c(C)cccc4C)n3)OC[C@H]2CC(C)(C)C)n1 [Compound 1673]

# Same assay, conditions: F508del/MF-HBE cells; corrector at a range of concentrations with 44 nM potentiator, 18-24 hours, 20% human serum
row,EC50 [nM],SMILES
1,< 1000,COC[C@@H]1CCN1c1cncc(CN2C(=O)c3cccc(c3)S(=O)(=O)Nc3nc(cc(-c4c(C)cccc4C)n3)OC[C@H]2CCC(C)(C)C)n1 [Compound 1730]

# Same assay, conditions: F508del/MF-HBE cells; with 44 nM potentiator; 18-24 hours; 20% human serum
row,EC50 [nM],SMILES
1,< 1000,Cc1cccc(C)c1-c1cc2nc(n1)NS(=O)(=O)c1cccc(c1)C(=O)N(Cc1cncc(N(C)C3CCC3)n1)[C@H](CCC(C)C)CO2 [Compound 1685]
2,< 1000,CC[C@@H](C)[C@@H]1COc2cc(-c3c(C)cccc3C)nc(n2)NS(=O)(=O)c2cccc(c2)C(=O)N1Cc1cncc(N(C)C2CCC2)n1 [Compound 1702]
3,< 1000,CC[C@H](C)N(C)c1cncc(CN2C(=O)c3cccc(c3)S(=O)(=O)Nc3nc(cc(-c4c(C)cccc4C)n3)OC[C@H]2CC(C)(C)C)n1 [Compound 1673]

# Same assay, conditions: F508del/MF-HBE cells; with 44 nM potentiator; 18-24 hours; 20% human serum; read-out: HBE2 Max activity (%)
row,Emax [%],SMILES
1,> 60,Cc1cccc(C)c1-c1cc2nc(n1)NS(=O)(=O)c1cccc(c1)C(=O)N(Cc1cncc(N(C)C3CCC3)n1)[C@H](CCC(C)C)CO2 [Compound 1685]
2,> 60,CC[C@@H](C)[C@@H]1COc2cc(-c3c(C)cccc3C)nc(n2)NS(=O)(=O)c2cccc(c2)C(=O)N1Cc1cncc(N(C)C2CCC2)n1 [Compound 1702]
3,> 60,COC[C@@H]1CCN1c1cncc(CN2C(=O)c3cccc(c3)S(=O)(=O)Nc3nc(cc(-c4c(C)cccc4C)n3)OC[C@H]2CCC(C)(C)C)n1 [Compound 1730]
4,> 60,CC[C@H](C)N(C)c1cncc(CN2C(=O)c3cccc(c3)S(=O)(=O)Nc3nc(cc(-c4c(C)cccc4C)n3)OC[C@H]2CC(C)(C)C)n1 [Compound 1673]
